According to US7662838B2, “Use of a deoxynojirimycin derivative or a pharmaceutically salt thereof” (Genzyme Corporation, priority 2003, dated 2010):
Where two headings read alike, the source gives them in different places.

Columns and labels:
[1] = many individuals; cited from earlier work
sucrase = molecular target: T1, sucrase (Rattus norvegicus, UniProt P23739); experiment: In vitro sucrase activity, intestinal membrane preparation; type: biochemical
T1 construct: Membrane homogenates were prepared by extensive washing and homogenization; from tissue; host or cells: rat intestinal membrane homogenate

[2] = system: C57BL/6J mice (ob-/-, db-/-, +/+); experiment: Oral treatment of obese, diabetes and normal C57BL/6J mice: glucose and water intake; type: in vivo
Protocol: Plasma glucose, water intake and food intake were monitored.
Mice (obese-lep^ob (C57B1/6)laHsd-Lep^ob); diabetes-lepr^db (C57B1/6KsOlaHsd—Lepr^db); wildtype (C57B1/6J OlaHsd) and wild type FVB (FVB/NHanHsd) were obtained from Harlan Nederland. Animals were fed with AM-II diet with or without N-(5-adamantane-1-yl-methoxy-pentyl)deoxynojirimycin (Hope Farms Netherlands). Mice were kept in groups of five in each cage. Water consumption and food intake were determined three times weekly per cage. Body weight of individual animals was determined three times weekly. Glucose in plasma was determined with the GOD-PAP method (Merck), and glucose in urine was determined using […] test strips (Roche).

surface GM3 = experiment: Surface GM3 expression by FACS after 3 days exposure of cells; type: cell-based; details: 72 h, cells exposed for 3 days, read-out: IC50 value for surface GM3 reduction
FVB and C57BL/6J mice = experiment: Tissue (glyco)sphingolipid levels in orally treated FVB and C57BL/6J mice (HPLC, TLC)
[3] = Tolerability in animal studies; type: in vivo
[4] = Pharmacological features (bioavailability, metabolism); details: in vivo
[5] = Plasma level and tissue penetration after oral dosing; type: in vivo, mice
lactase = molecular target: T2, lactase (Rattus norvegicus, UniProt Q02401); experiment: In vitro lactase activity, intestinal membrane preparation; type: biochemical; details: rat intestinal membranes; read-out: IC50 value for inhibition of Lactase
T2 construct: Membrane homogenates were prepared by extensive washing and homogenization; from tissue; host or cells: rat intestinal membrane homogenate
T2 sequence (Q02401 868-1928): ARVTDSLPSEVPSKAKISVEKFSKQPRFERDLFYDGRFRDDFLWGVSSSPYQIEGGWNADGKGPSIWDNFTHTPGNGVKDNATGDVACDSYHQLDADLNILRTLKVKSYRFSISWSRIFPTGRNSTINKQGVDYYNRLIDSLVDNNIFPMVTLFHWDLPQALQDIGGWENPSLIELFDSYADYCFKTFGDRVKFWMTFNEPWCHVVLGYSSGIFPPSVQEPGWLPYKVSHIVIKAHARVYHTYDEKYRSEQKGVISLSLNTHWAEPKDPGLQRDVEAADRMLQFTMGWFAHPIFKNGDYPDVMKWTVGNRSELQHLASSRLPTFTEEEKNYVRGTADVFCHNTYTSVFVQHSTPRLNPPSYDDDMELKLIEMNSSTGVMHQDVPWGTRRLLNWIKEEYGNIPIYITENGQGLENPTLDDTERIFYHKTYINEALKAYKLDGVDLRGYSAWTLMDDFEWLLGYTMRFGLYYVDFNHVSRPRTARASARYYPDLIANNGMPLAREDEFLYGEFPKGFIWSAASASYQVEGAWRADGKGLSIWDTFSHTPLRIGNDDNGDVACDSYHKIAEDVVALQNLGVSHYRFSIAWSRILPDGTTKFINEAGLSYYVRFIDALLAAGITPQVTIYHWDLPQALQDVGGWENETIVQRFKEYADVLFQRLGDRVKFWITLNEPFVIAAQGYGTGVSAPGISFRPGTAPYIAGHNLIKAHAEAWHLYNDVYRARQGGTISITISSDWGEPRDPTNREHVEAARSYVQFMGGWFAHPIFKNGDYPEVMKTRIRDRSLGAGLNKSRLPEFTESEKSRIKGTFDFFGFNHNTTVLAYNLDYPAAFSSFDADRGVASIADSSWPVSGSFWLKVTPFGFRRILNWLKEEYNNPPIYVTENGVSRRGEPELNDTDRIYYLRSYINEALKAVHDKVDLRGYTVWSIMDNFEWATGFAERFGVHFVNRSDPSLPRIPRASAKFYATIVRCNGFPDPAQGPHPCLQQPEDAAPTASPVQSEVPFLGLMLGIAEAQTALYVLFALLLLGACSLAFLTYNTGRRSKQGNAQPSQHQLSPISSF

debranching enzyme = molecular target: T3, debranching enzyme (Homo sapiens, UniProt P35573); experiment: Debranching enzyme activity, glucose release from limit dextrin, erythrocyte homogenate; type: biochemical; details: read-out: IC50 value for inhibition of Debranching enzyme
T3 construct: As enzyme source erythrocytes are used since they contain no other enzymes that can degrade glycogen or limit dextrin; from tissue; host or cells: erythrocyte homogenate

[6] = system: cultured adipocytes and muscle cells; experiment: Insulin signaling in cultured adipocytes and muscle cells (GLUT4, deoxyglucose uptake); type: cell-based
Description: Initial experiments already confirmed this effect.

[7] = molecular target: glycan trimming α-glucosidase; details: cited from earlier work
[8] = intestinal sucrase, read-out: IC50 value for sucrase
[9] = obese and diabetes mice, administration by food, dose-dependent
[10] = rat intestinal membranes, read-out: IC50 value for inhibition of Sucrase

T1 sequence (P23739 1014-1841 limits assumed): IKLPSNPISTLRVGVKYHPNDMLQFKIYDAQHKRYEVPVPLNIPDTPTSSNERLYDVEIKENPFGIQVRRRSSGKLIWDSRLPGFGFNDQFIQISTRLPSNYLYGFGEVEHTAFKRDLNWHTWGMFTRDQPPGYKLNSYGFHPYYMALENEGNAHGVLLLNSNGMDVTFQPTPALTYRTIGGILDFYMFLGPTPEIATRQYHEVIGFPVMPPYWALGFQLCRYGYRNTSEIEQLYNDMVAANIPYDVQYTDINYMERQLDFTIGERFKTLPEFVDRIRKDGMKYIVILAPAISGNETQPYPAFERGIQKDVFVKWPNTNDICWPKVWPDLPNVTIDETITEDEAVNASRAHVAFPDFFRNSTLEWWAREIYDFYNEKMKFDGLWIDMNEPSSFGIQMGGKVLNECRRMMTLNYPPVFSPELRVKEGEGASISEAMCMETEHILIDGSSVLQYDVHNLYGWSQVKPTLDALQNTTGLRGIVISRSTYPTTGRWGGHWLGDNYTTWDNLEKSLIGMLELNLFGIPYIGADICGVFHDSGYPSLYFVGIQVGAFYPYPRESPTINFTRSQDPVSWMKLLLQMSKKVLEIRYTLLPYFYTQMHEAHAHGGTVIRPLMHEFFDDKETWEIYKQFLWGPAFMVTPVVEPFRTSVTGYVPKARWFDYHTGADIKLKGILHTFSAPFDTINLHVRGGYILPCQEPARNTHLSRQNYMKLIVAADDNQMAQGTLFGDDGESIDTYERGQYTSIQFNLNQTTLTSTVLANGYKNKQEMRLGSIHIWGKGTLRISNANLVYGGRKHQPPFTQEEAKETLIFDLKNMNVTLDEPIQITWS
T1 sequence (P23739 1-1013 partner limits assumed): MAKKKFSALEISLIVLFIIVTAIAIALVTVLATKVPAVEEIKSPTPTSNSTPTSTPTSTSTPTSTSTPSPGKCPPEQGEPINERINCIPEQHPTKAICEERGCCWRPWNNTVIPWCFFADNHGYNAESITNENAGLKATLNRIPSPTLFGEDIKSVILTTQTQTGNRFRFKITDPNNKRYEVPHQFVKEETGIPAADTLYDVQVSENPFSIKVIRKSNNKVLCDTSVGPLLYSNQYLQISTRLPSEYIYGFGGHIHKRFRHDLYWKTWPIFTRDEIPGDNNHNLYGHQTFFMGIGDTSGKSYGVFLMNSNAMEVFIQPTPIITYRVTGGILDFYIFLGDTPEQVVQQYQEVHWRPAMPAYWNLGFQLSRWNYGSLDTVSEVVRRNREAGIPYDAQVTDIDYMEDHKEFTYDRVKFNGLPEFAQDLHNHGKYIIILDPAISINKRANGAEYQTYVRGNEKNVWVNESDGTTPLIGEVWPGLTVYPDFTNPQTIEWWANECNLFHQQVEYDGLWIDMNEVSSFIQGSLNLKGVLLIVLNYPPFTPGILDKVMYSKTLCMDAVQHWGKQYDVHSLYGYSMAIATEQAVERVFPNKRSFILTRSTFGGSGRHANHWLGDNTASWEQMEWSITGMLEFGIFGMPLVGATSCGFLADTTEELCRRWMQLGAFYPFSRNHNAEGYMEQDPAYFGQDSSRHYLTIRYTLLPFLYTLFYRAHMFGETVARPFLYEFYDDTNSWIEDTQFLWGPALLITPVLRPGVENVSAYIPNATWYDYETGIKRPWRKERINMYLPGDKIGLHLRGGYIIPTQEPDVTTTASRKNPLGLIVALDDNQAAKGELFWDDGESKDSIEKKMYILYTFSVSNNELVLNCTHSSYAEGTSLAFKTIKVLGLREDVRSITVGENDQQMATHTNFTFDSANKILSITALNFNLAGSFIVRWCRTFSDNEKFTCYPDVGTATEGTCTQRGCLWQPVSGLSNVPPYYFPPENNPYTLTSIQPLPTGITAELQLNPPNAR
T3 sequence (P35573 whole entry): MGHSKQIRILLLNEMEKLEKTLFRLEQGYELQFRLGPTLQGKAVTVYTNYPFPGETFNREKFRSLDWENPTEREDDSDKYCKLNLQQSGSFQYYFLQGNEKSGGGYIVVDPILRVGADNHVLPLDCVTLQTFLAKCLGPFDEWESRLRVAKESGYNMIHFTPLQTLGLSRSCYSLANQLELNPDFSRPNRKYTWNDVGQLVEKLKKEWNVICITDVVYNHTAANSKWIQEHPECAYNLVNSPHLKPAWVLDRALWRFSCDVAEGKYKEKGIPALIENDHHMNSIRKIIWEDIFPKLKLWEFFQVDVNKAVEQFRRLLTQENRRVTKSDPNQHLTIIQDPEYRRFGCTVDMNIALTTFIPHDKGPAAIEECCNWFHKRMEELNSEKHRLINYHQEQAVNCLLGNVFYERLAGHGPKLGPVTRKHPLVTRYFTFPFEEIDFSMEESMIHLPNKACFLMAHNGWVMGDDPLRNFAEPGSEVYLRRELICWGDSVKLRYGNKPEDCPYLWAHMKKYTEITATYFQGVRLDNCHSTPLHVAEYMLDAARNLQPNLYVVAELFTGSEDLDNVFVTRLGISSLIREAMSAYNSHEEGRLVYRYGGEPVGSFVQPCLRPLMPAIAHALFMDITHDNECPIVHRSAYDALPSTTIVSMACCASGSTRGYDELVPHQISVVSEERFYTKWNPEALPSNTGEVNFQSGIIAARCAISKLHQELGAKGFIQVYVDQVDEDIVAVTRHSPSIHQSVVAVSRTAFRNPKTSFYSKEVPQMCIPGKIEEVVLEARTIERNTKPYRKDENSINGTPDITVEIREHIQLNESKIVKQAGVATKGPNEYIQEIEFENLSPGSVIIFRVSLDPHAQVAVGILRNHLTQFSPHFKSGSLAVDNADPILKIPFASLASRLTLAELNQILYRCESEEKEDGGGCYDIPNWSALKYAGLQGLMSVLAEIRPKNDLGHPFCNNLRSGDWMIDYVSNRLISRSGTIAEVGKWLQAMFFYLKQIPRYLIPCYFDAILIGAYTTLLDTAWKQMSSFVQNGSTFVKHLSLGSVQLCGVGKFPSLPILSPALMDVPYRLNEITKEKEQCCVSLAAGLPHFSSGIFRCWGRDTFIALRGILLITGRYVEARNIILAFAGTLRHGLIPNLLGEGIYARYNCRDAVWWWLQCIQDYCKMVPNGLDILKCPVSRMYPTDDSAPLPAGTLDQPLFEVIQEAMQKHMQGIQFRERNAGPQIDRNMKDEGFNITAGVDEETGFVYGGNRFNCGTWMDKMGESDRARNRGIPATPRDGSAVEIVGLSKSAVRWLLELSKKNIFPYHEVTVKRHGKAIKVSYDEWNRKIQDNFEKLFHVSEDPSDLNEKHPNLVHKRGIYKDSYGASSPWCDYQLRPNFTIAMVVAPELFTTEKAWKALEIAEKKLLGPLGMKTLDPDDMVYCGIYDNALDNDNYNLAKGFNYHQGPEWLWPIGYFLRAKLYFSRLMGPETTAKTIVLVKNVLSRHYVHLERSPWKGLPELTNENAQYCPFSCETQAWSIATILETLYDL

**Q.** With C[C@H]1O[C@H](O[C@H]2[C@H](O)[C@@H](O)[C@@H](O[C@H]3[C@H](O)[C@@H](O)C(O)O[C@@H]3CO)O[C@@H]2CO)[C@H](O)[C@@H](O)[C@@H]1N[C@H]1C=C(CO)[C@@H](O)[C@H](O)[C@H]1O (some centres unmarked) [Acarbose] as the compound, how does the “tolerability (intestinal complaints)” value [1] read?
**A.** not very well tolerated

**Q.** What does the source list for OC[C@@H]1[C@@H](O)[C@H](O)[C@@H](O)CN1CCCCCOCC12CC3CC(CC(C3)C1)C2 [AMP-DNM, N-(5-adamantane-1-yl-methoxy-pentyl)deoxynojirimycin]?
**A.** IC50 (sucrase; [8]): 4500 µM; urinary glucose ([2]; after 2 weeks treatment, particularly ob-/ob- mice at highest dose): major reduction; blood glucose ([2]; normal mice): small reduction; blood glucose [2, 9]: reductions; water intake [2, 9]: reductions; IC50 (surface GM3): ~0.25 µM; brain gangliosides or sulfatide (FVB and C57BL/6J mice; TLC, brain): No changes; liver GM3 (FVB and C57BL/6J mice; TLC, liver, 2 wks 100 mg/kg): marked reduction; muscle GM3 (FVB and C57BL/6J mice; TLC, muscle): reduction; brain galactosylceramide concentration (FVB and C57BL/6J mice; brain, 100 mg/kg oral): No changes; liver glucosylceramide reduced by (FVB and C57BL/6J mice; liver, 100 mg/kg oral): 80%; ceramide concentration (FVB and C57BL/6J mice; liver, muscle and brain, 100 mg/kg oral): No changes; muscle glucosylceramide reduced by (FVB and C57BL/6J mice; muscle, 100 mg/kg oral): 50%; overt pathology in animal studies [3]: does not result in any overt pathology; tolerability in animal studies [3]: well tolerated; metabolism [4]: lack of metabolism; oral bioavailability ([4]; po): good oral bioavailability; concentration at 4 weeks ([5]; mouse, plasma, oral, 4 weeks 100 mg/kg orally, enzymatic method, read-out: plasma levels): ~1 µM; brain penetration ([5]; oral administration): poorly penetrates in the brain; IC50 (lactase): 18000 µM; IC50 (debranching enzyme): > 500 µM; surface expression of GLUT4 ([6]; adipocytes): increased; deoxyglucose uptake ([6]; cultured adipocytes and muscle cells): increased

**Q.** Which IC50 (sucrase; [8]) does the source give for OCCN1C[C@H](O)[C@@H](O)[C@H](O)[C@H]1CO [N-hydroxyethyl-deoxynojirimycin] here?
**A.** < 5000 µM

**Q.** What about the IC50 (sucrase; [10]) of the same compound?
**A.** 100 µM

**Q.** And the “tolerability (intestinal complaints)” value [1]?
**A.** not very well tolerated

**Q.** For CCCCN1C[C@H](O)[C@@H](O)[C@H](O)[C@H]1CO [N-butyl-deoxynojirimycin], which IC50 (sucrase; [10]) is on record?
**A.** 500 µM

**Q.** What about the “Ki glycan trimming α-glucosidase in vitro” value [7] of the same compound?
**A.** sub-μM
